The text below walks through data of patent US10975068B2, “6-aminopyridin-3-yl thiazoles as modulators of RORγT” (Janssen Pharmaceutica NV, priority 2016, dated 2021).

Structures are written as SMILES. Like-named read-outs stand apart in the source and are kept apart here. Marks after values point to notes of the source that are not given here.

For experiment [1], the target named is human RORγt ligand binding domain (RORγt LBD) (Homo sapiens (Human), UniProt P51449). Briefly: RORγt ThermoFluor® assay (thermal shift binding). As to conditions: read-out: ThermoFluor® Assay, Kd. Summed up:
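Binding was inferred from thermal stabilisation (ΔTm) of the E. coli-expressed RORγt LBD (0.065 mg/mL), monitored by 1,8-ANS (60 μM) emission at 500 nm during a 1 °C/min ramp. Buffer was Hepes 100 mM pH 7.0 with NaCl, GSH and Tween-20.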
For orientation: DSF heats the sample and reads unfolding from a dye or from intrinsic fluorescence.

The next experiment concerns the target full-length human RORγt (Homo sapiens (Human), UniProt P51449). The experiment can be described thus: RORγt (full-length human) reporter assay, Conditions B or C. As to conditions: for RORγt (FL) Reporter Assay B or C, % inhibition (value marked *): marked *: footnote not given; for inhibition at 3 µM: read-out: RORγt (FL) Reporter Assay B or C, % inhibition. Format: cell-based. In outline:
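Readout is dual luciferase: firefly (GAL4-driven) normalized to DMSO-only and saturating-reference controls, then to CMV-Renilla. Full-length human RORγt fused to GAL4-DBD was transiently expressed in HEK293T; compound exposure ran overnight (16-20 h) starting 4-6 h after transfection, final FBS 1.3%, DMSO 0.1%.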
In general terms: In a reporter assay the amount or activity of a reporter protein is the signal.

[2] abbreviates: Conditions B or C, read-out: RORγt (FL) Reporter Assay B or C, IC50.
Where [3] appears, read: RORγt (FL) Reporter Assay B or C, IC50 (μM), Conditions B or C.
Where [4] appears, read: read-out: RORγt (FL) Reporter Assay B or C, IC50.

Usually Kd stands for the constant that tells how readily two partners part at equilibrium. In general, IC50 refers to the concentration that gives 50% inhibition. As usually defined, the inhibition is the relative decrease from the control value, in per cent.

Chain of human RORγt ligand binding domain (RORγt LBD) (P51449 other isoform, or with tags, fused parts or gaps): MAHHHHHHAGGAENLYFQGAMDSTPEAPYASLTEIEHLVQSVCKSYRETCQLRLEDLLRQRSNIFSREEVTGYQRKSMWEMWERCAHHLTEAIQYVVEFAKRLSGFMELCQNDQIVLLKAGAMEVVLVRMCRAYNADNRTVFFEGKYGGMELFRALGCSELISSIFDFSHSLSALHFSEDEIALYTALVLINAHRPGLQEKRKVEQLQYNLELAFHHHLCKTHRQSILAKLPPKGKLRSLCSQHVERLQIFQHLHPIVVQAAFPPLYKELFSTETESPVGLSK
Chain of full-length human RORγt (P51449 other isoform, or with tags, fused parts or gaps): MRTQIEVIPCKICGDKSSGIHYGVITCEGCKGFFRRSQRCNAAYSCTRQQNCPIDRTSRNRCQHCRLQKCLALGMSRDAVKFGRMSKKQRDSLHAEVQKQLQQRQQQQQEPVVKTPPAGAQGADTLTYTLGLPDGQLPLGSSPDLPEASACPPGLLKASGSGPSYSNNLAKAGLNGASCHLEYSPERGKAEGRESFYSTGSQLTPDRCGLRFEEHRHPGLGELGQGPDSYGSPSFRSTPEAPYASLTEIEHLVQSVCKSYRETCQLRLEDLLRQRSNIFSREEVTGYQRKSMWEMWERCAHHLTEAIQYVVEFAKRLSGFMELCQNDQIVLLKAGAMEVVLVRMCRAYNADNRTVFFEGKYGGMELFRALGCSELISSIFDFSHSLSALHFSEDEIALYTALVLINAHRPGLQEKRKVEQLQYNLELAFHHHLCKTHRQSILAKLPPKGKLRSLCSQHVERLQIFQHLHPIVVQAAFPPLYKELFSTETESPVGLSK

Regarding `CC[C@H](Nc1cc(C(F)F)c(-c2sc(C(=O)N[C@@H]3CCC[C@H]3O)nc2C(=O)N2C3CCC2CC3)cn1)C(F)(F)F` [Example 225, 4-((1s,4s)-7-Azabicyclo[2.2.1]heptane-7-carbonyl)-5-(4-(difluoromethyl)-6-(((1S)-1-(trifluoromethyl)propyl)amino)-3-pyridyl)-N-((1R,2R)-2-hydroxycyclopentyl)thiazole-2-carboxamide], the Kd in experiment [1] was found to be 0.95 nM. Moreover, the “RORγt (FL) Reporter Assay B or C, % inhibition (value marked *)” value (from here on “RORγt … % inhibition (value marked *)”) at full-length human RORγt (Conditions B or C) was 110* %. At full-length human RORγt (setting [2]), the IC50 stood at 0.0068 µM.

For `C[C@H](Nc1cc(C(F)(F)F)c(-c2sc(C(=O)N[C@@H]3COC[C@H]3O)nc2C(=O)N2C3CCC2CC3)cn1)C(F)(F)F` [Example 150, 4-((1s,4s)-7-Azabicyclo[2.2.1]heptane-7-carbonyl)-N-((3R,4S)-4-hydroxytetrahydrofuran-3-yl)-5-(4-(trifluoromethyl)-6-(((1S)-2,2,2-trifluoro-1-methyl-ethyl)amino)-3-pyridyl)thiazole-2-carboxamide], the Kd in experiment [1] is 3.2 nM. Further, the “RORγt … % inhibition (value marked *)” value on full-length human RORγt (Conditions B or C) is 111* %. Further, on full-length human RORγt (setting [3]), half-maximal inhibition (IC50) required 0.035 µM.

Take `C[C@H]1CCCN1C(=O)c1nc(C(=O)NC[C@H](O)C(C)(C)O)sc1-c1cnc(NC(C)(C)C)cc1C(F)(F)F` (single isomer, unassigned) [Example 244, 5-(6-(tert-Butylamino)-4-(trifluoromethyl)pyridin-3-yl)-N—((S*)-2,3-dihydroxy-3-methylbutyl)-4-((S)-2-methylpyrrolidine-1-carbonyl)thiazole-2-carboxamide]: the Kd in experiment [1] was 6.2 nM. In addition, at full-length human RORγt (Conditions B or C), the “RORγt … % inhibition (value marked *)” value was 106* %. Also, the IC50 on full-length human RORγt (setting [2]) was found to be 0.0083 µM.

On to `C[C@H]1CCCN1C(=O)c1nc(C(=O)N2CC[C@H](O)C2)sc1-c1cnc(NC(C)(C)C)cc1C(F)(F)F` [Example 350, [5-[6-(tert-Butylamino)-4-(trifluoromethyl)-3-pyridyl]-2-[(3S)-3-hydroxypyrrolidine-1-carbonyl]thiazol-4-yl]-[(2S)-2-methylpyrrolidin-1-yl]methanone], for which, in experiment [1], the equilibrium dissociation constant (Kd) amounted to 8.3 nM. Further, on full-length human RORγt (at 3 μM compound concentration), the inhibition at 3 µM was 110%. In addition, on full-length human RORγt (setting [4]), the IC50 is 0.03 µM.

Turning to `C[C@H]1CCCN1C(=O)c1nc(C(=O)NC2CCC2O)sc1-c1cnc(NC(C)(C)C)cc1C(F)(F)F` (stereo partly drawn) [Example 369, 5-(6-(tert-Butylamino)-4-(trifluoromethyl)pyridin-3-yl)-N-(trans-2-hydroxycyclobutyl)-4-((S)-2-methylpyrrolidine-1-carbonyl)thiazole-2-carboxamide], in experiment [1], the Kd was determined as 0.7 nM. Also, at full-length human RORγt (at 3 μM compound concentration), the inhibition at 3 µM came out at 106%. Further, the IC50 at full-length human RORγt (setting [4]) stood at 0.0066 µM.

Take `CC[C@H](Nc1cc(C(F)F)c(-c2sc(C(=O)N[C@@H]3CC[C@@H](O)C3)nc2C(=O)N2CC(F)(F)C[C@@H]2C)cn1)C(F)(F)F` [Example 424, 4-[(2S)-4,4-Difluoro-2-methyl-pyrrolidine-1-carbonyl]-5-[4-(difluoromethyl)-6-[[(1S)-1-(trifluoromethyl)propyl]amino]-3-pyridyl]-N-[(1R,3R)-3-hydroxycyclopentyl]thiazole-2-carboxamide]: the Kd in experiment [1] turned out to be 0.23 nM. Besides, the inhibition at 3 µM at full-length human RORγt (at 3 μM compound concentration) amounted to 98%. Besides, at full-length human RORγt (setting [4]), the IC50 was 0.063 µM.

As for `CC[C@H](Nc1cc(C(F)(F)F)c(-c2sc(C(=O)NCC(C)(C)O)nc2C(=O)N2C3CCC2CC3)cn1)C(F)(F)F` [Example 101, 4-((1s,4s)-7-Azabicyclo[2.2.1]heptane-7-carbonyl)-N-(2-hydroxy-2-methylpropyl)-5-(6-(((S)-1,1,1-trifluorobutan-2-yl)amino)-4-(trifluoromethyl)pyridin-3-yl)thiazole-2-carboxamide], the Kd in experiment [1] came out at 3.2 nM. At full-length human RORγt (Conditions B or C), the “RORγt … % inhibition (value marked *)” value is listed as 107* %. Also, half-maximal inhibition at full-length human RORγt (setting [3]) (IC50) required 0.019 µM.

Consider `C[C@H]1CCCN1C(=O)c1nc(C(=O)N[C@H]2C[C@H](O)C2)sc1-c1cnc(NC(C)(C)C)cc1C(F)(F)F` [Example 258, 5-[6-(tert-Butylamino)-4-(trifluoromethyl)-3-pyridyl]-N-((1r,3S)-3-hydroxycyclobutyl)-4-[(2S)-2-methylpyrrolidine-1-carbonyl]thiazole-2-carboxamide], for which the Kd in experiment [1] came to 3.5 nM. Also, the inhibition at 3 µM on full-length human RORγt (at 3 μM compound concentration) came out at 110%. The IC50 on full-length human RORγt (setting [4]) was found to be 0.065 µM.

For `C[C@H]1CCCN1C(=O)c1nc(C(=O)NCC(C)(C)O)sc1-c1cnc(NC(C)(C)C2CC2)cc1C(F)F` [Example 105, (S)-5-(6-((2-Cyclopropylpropan-2-yl)amino)-4-(difluoromethyl)pyridin-3-yl)-N-(2-hydroxy-2-methylpropyl)-4-(2-methylpyrrolidine-1-carbonyl)thiazole-2-carboxamide], in experiment [1], the Kd was 2 nM. The “RORγt … % inhibition (value marked *)” value at full-length human RORγt (Conditions B or C) is listed as 116* %. Moreover, the IC50 at full-length human RORγt (setting [2]) is 0.015 µM.

With `C[C@H](CO)NC(=O)c1nc(C(=O)N2CCC[C@@H]2C)c(-c2cnc(N[C@@H](C)C(F)(F)F)cc2C(F)F)s1` [Example 284, 5-(4-(Difluoromethyl)-6-(((S)-1,1,1-trifluoropropan-2-yl)amino)pyridin-3-yl)-N—((R)-1-hydroxypropan-2-yl)-4-((S)-2-methylpyrrolidine-1-carbonyl)thiazole-2-carboxamide], the dissociation constant Kd in experiment [1] was found to be 8.1 nM. The inhibition at 3 µM at full-length human RORγt (at 3 μM compound concentration) turned out to be 111%. On full-length human RORγt (setting [4]), the IC50 came out at 0.11 µM.

For `CC[C@@H](Nc1cc(C(F)F)c(-c2sc(C(=O)N[C@@H](C)C(C)(C)O)nc2C(=O)N2CCC[C@@H]2C)cn1)C(F)(F)F` [Example 230], the Kd in experiment [1] worked out at 2.4 nM. In addition, the “RORγt … % inhibition (value marked *)” value on full-length human RORγt (Conditions B or C) is recorded as 99* %. For the same molecule, the IC50 on full-length human RORγt (setting [2]) worked out at 0.015 µM.

In the case of `C[C@H]1CCCN1C(=O)c1nc(C(N)=O)sc1-c1cnc(NC(C)(C)C)cc1C(F)(F)F` [Example 308, (S)-5-(6-(tert-Butylamino)-4-(trifluoromethyl)pyridin-3-yl)-4-(2-methylpyrrolidine-1-carbonyl)thiazole-2-carboxamide], the Kd in experiment [1] was 96 nM. Also, the inhibition at 3 µM at full-length human RORγt (at 3 μM compound concentration) was 107%. Further, on full-length human RORγt (setting [4]), the concentration for half-maximal inhibition (IC50) was 0.26 µM.

In the case of `C[C@H]1CCCN1C(=O)c1nc(C(=O)NCC(C)(C)O)sc1-c1cnc(NC(C2CC2)C(F)(F)F)cc1C(F)F` (stereo partly drawn) [Example 294], the Kd in experiment [1] turned out to be 1.3 nM. Moreover, the inhibition at 3 µM at full-length human RORγt (at 3 μM compound concentration) came out at 100%. For the same molecule, on full-length human RORγt (setting [4]), the 50% inhibitory concentration (IC50) stood at 0.013 µM.

Turning to `C[C@H](Nc1cc(C(F)F)c(-c2sc(C(=O)N[C@H]3CC[C@H](O)C3)nc2C(=O)N2C3CCC2CC3)cn1)C(F)(F)F` [Example 411, 4-((1s,4s)-7-Azabicyclo[2.2.1]heptane-7-carbonyl)-5-[4-(difluoromethyl)-6-[[(1S)-2,2,2-trifluoro-1-methyl-ethyl]amino]-3-pyridyl]-N-[(1S,3S)-3-hydroxycyclopentyl]thiazole-2-carboxamide], the Kd in experiment [1] stood at 3.6 nM. Moreover, at full-length human RORγt (at 3 μM compound concentration), the inhibition at 3 µM amounted to 100%. Also, the IC50 on full-length human RORγt (setting [4]) was 0.11 µM.

On to `C[C@H]1CCCN1C(=O)c1nc(C(=O)NCC(C)(C)O)sc1-c1cnc(NC(C)(C)C(F)(F)F)cc1C(F)(F)F` [Example 132, (S)—N-(2-Hydroxy-2-methylpropyl)-4-(2-methylpyrrolidine-1-carbonyl)-5-(6-((1,1,1-trifluoro-2-methylpropan-2-yl)amino)-4-(trifluoromethyl)pyridin-3-yl)thiazole-2-carboxamide], for which the Kd in experiment [1] came to 0.41 nM. Besides, the “RORγt … % inhibition (value marked *)” value at full-length human RORγt (Conditions B or C) is on record as 112* %. Moreover, the IC50 on full-length human RORγt (setting [2]) was 0.014 µM.

With `CC[C@H](Nc1cc(C(F)F)c(-c2sc(C(=O)NC3CCOCC3)nc2C(=O)N2C3CCC2CC3)cn1)C(F)(F)F` [Example 153], the Kd in experiment [1] was 1.1 nM. The “RORγt … % inhibition (value marked *)” value on full-length human RORγt (Conditions B or C) was 98* %. Further, the half-maximal inhibitory concentration (IC50) at full-length human RORγt (setting [2]) was determined as 0.052 µM.

Consider `C[C@H]1CCCN1C(=O)c1nc(C(=O)N2CC(O)C2)sc1-c1cnc(NC(C)(C)C)cc1C(F)(F)F` [Example 250, [5-[6-(tert-Butylamino)-4-(trifluoromethyl)-3-pyridyl]-2-(3-hydroxyazetidine-1-carbonyl)thiazol-4-yl]-[(2S)-2-methylpyrrolidin-1-yl]methanone], for which, in experiment [1], the Kd amounted to 8.1 nM. Moreover, at full-length human RORγt (at 3 μM compound concentration), the inhibition at 3 µM turned out to be 106%. Also, the IC50 on full-length human RORγt (setting [4]) was determined as 0.028 µM.

Take `CC[C@H](Nc1cc(C(F)F)c(-c2sc(C(=O)NC3CCC3O)nc2C(=O)N2CCC[C@@H]2C)cn1)C(F)(F)F` (stereo partly drawn) [Example 379, 5-(4-(Difluoromethyl)-6-(((S)-1,1,1-trifluorobutan-2-yl)amino)pyridin-3-yl)-N-(cis-2-hydroxycyclobutyl)-4-((S)-2-methylpyrrolidine-1-carbonyl)thiazole-2-carboxamide]: the Kd in experiment [1] was determined as 2.4 nM. Besides, the “RORγt (FL) Reporter Assay B or C, % inhibition” value at full-length human RORγt (at 3 μM compound concentration) was 101* %. Moreover, at full-length human RORγt (setting [4]), the IC50 turned out to be 0.055 µM.

Consider `C[C@H]1CCCN1C(=O)c1nc(C(=O)NCc2n[nH]c(=O)[nH]2)sc1-c1cnc(NC(C)(C)C)cc1C(F)(F)F` [Example 302, (S)-5-(6-(tert-Butylamino)-4-(trifluoromethyl)pyridin-3-yl)-4-(2-methylpyrrolidine-1-carbonyl)-N-((5-oxo-4,5-dihydro-1H-1,2,4-triazol-3-yl)methyl)thiazole-2-carboxamide], for which, in experiment [1], the Kd is 49 nM. In addition, the inhibition at 3 µM at full-length human RORγt (at 3 μM compound concentration) amounted to 86%. The IC50 at full-length human RORγt (setting [4]) was above 3 µM.
